Source: patent US5610155A, “Condensed diazepinones, processes for preparing them and agents containing these compounds for treating diseases of the central nervous system and for promoting cerebral blood circulation” (Dr. Karl Thomae GmbH, priority 1995, dated 1997)
“Also recorded” adds a separate entry of the source.

Legend:
M3 (Submandibular gland) = biological target: T1, M3 (Submandibular gland) (Rattus norvegicus, UniProt P08483); assay: Receptor binding test in vitro, M3 (submandibular/salivary gland), [3H]NMS; design: species or system rat (male Wistar); details: 0.3 nM [3H]NMS, 40 min, ambient temperature, pH 7.5
T1 construct: The cerebral cortex, heart and salivary glands were removed, washed and homogenised; from tissue; host or cells: salivary (submandibular) glands of male Wistar rats (Chbb: THOM)

M1 (Cortex) = biological target: T2, M1 (Cortex) (Rattus norvegicus, UniProt P08482); assay: Receptor binding test in vitro, M1 (cerebral cortex), [3H]pirenzepine; design: species or system rat (male Wistar); details: 1 nM [3H]pirenzepine, 90 min, ambient temperature, pH 7.5
T2 construct: The cerebral cortex, heart and salivary glands were removed, washed and homogenised; from tissue; host or cells: cerebral cortex of male Wistar rats (Chbb: THOM)
T2 sequence (P08482 1-460): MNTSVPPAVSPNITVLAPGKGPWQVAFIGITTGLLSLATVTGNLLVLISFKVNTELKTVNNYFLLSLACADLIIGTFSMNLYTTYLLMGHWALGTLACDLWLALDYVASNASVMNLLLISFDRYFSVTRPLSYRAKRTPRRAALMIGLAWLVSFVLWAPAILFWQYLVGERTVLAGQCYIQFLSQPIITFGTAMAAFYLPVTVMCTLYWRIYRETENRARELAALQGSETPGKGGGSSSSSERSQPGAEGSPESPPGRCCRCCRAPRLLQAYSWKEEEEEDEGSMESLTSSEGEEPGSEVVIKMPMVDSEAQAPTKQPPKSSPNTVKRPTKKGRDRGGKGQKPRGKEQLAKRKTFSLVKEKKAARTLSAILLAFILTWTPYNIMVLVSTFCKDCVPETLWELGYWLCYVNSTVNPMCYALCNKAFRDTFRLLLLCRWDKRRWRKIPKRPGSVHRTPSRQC

M2 (Heart) = biological target: T3, M2 (Heart) (Rattus norvegicus, UniProt P10980); assay: Receptor binding test in vitro, M2 (heart), [3H]NMS; design: species or system rat (male Wistar); details: 0.3 nM [3H]NMS, 40 min, ambient temperature, pH 7.5
T3 construct: The cerebral cortex, heart and salivary glands were removed, washed and homogenised; from tissue; host or cells: heart of male Wistar rats (Chbb: THOM)
T3 sequence (P10980 1-466): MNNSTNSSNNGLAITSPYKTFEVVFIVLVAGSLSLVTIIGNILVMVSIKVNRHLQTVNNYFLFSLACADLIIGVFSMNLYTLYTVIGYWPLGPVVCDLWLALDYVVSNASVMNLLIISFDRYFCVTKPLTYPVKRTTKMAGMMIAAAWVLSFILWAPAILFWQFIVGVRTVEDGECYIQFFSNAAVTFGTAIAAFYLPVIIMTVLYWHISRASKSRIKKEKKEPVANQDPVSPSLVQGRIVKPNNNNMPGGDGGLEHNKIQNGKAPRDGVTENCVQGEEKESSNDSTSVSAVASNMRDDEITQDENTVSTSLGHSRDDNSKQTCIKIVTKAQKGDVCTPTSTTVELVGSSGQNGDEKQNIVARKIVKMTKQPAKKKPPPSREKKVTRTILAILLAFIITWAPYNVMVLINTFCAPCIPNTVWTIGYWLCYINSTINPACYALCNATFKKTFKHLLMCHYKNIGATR

[1] = test system: arecoline-induced increase in blood pressure; assay: Investigation for central activity: arecoline test, CNS-penetration in vivo; design: species or system rat; details: for ED50: Rattus norvegicus, iv, read-out: ED50, reduction in the arecoline-induced increase in blood pressure
Experimental: Principle: Arecoline has both a central and a peripherally active component. […] Cerebroavailable antimuscarinics block this central effect. Method: Male rats weighing 300 g are anaesthetised i.p. with urethane (1.2 g/kg). The trachea is […], the animals are respirated with an air/oxygen mixture (80 breaths per minute). The blood pressure is recorded after canulation of the carotid artery by means of a pressure recorder (Bell and Howell Type 4-327-I). The test substances are administered through the jugular vein ([…]). […] The arecoline is administered (in doses of 0.3 mg/kg) at 15 minute intervals. After 2 comparison values, the test substance is injected in increasing doses 5 minutes before the next administration of arecoline. The results obtained were compared with the average starting values and determined as the percentage inhibition.

[2] = test system: 24 months old learning-impaired rats; assay: Effect on the memory in the Morris water maze (aged rats); format: in vivo, rat; details: 24 months old rats, 0.2 mg/kg s.c., 4 days, FIG. 1, vs physiological saline
Experimental: The tests were carried out using the water maze described by R. G. M. Morris in Learn Motive 12: 239-249 (1981) using the test method described therein.
On the first day, rats which were 24 months old and therefore learning-impaired (n=7 per group) were given 0.2 mg/kg of compound D by subcutaneous route whilst another group of these animals were given physiological saline solution (s.c.).

[3] = literature: Hunter and Roberts 1988; Hunter et al. 1986; Sutherland et al. 1982; Wishaw 1985; cited from earlier work

T1 sequence (P08483 whole entry): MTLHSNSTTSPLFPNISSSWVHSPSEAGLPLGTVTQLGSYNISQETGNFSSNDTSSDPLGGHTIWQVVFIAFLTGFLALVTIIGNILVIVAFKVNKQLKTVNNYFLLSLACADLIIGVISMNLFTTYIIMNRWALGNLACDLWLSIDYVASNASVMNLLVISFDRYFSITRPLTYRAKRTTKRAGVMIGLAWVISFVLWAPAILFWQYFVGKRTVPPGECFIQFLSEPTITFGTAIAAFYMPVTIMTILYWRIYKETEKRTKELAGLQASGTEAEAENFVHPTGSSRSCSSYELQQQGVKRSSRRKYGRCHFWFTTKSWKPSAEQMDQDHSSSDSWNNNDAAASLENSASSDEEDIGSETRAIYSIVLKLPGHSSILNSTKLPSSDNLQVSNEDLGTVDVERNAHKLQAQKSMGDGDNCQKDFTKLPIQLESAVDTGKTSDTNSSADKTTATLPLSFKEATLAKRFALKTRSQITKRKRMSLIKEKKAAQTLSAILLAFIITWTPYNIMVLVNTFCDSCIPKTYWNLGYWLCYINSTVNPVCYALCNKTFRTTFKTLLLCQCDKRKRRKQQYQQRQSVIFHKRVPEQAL

SMILES	Ki (M3 (Submandibular gland)) [nM]	Ki (M1 (Cortex)) [nM]	Ki (M2 (Heart)) [nM]	ED50 [1] [mg/kg]	Effect on arecoline-mediated central effects / increase in blood pressure (in words) ([1]; rat, i.v.)	Memory performance in the Morris water maze (in words) [2]	Learning ability and memory performance (in words) [3]
CCN(CC)CC1CCCCN1CC(=O)N1c2ccccc2C(=O)Nc2cccnc21 (stereo not shown) [H]	2000						
CCCN(CCC)CC1CCCCN1CCNC(=O)N1c2ccccc2C(=O)Nc2cccnc21 (stereo not shown) [L]		30	7.9	> 10	no effect on the increase in blood pressure caused by arecoline		
CCN(CC)CC1COCCN1CCCC(=O)N1c2ccccc2C(=O)Nc2cccnc21 (stereo not shown) [Q]	50	50	20				
CN(CCC1CCCN1C)CC(=O)N1c2ccccc2C(=O)Nc2cccnc21 (stereo not shown) [R]	30	7.1	3				
CN(CCC1CCCCCN1C)CC(=O)N1c2ccccc2C(=O)Nc2cccnc21 (stereo not shown) [S]	25	16	3				
CCCC(C)(C)C(=O)N(CC)CCCC1CCN(CC(=O)N2c3ccc(Cl)cc3C(=O)Nc3cccnc32)CC1 [Substance D, 5,11-dihydro-8-chloro-11-[[4-[3-[(2,2-dimethyl-1-oxopentyl)-ethylamino]propyl]-1-piperidinyl]-acetyl]-6H-pyrido[2,3-b][1,4]benzodiazepin-6-one]	916	866	25	5		improved memory performance; also recorded: reached the same level as the control groups of young rats	
CCN(CCCC1CCN(CC(=O)N2c3ccc(C)cc3C(=O)Nc3cccnc32)CC1)C(=O)C(C)(C)CC [Substance G, 5,11-dihydro-8-methyl-11-[[4-[3-[(2,2-dimethyl-1oxobutyl)ethylamino]propyl]-1-piperidinyl]acetyl]-6H-pyrido[2,3-b][1,4]benzodiazepin-6-one]	750	600	25	5.1			
CN1CCN(CC(=O)N2c3ccccc3C(=O)Nc3cccnc32)CC1 [pirenzepine]							a deterioration in learning ability and memory performance was observed

Second part, led by results:

Ki (M3 (Submandibular gland)) [nM]	Ki (M1 (Cortex)) [nM]	Ki (M2 (Heart)) [nM]	SMILES	ED50 [1] [mg/kg]	Effect on arecoline-mediated central effects / increase in blood pressure (in words) ([1]; rat, i.v.)	Memory performance in the Morris water maze (in words) [2]	Learning ability and memory performance (in words) [3]
151	20		CCN(CC)CCCCC1CCN(CC(=O)N2c3ccccc3C(=O)Nc3cccnc32)CC1 [I]				
1820	794	120	O=C1Nc2cccnc2N(C(=O)CCC#CCN2CCCCC2)c2ccccc21 [J]				
13	13	2	O=C1Nc2cccnc2N(C(=O)N2CCCC(CCCN3CCCCC3)C2)c2ccccc21 (stereo not shown) [M]				
6	7.9	2	Cc1scc2c1N(C(=O)CN1CCC(CCCN3CCCCC3)CC1)c1ccccc1NC2=O [N]				
30	35	7.6	Cc1scc2c1N(C(=O)CCC#CCN1CCCCCC1)c1ccccc1NC2=O [P]				
750	500	25	CCN(CCCC1CCN(CC(=O)N2c3ccccc3C(=O)Nc3cccnc32)CC1)C(=O)C(C)(C)CC [Substance A, 5,11-dihydro-11-[[4-[3-[(2,2-dimethyl-1-oxobutyl]-ethylamino]-propyl]-1-piperidinyl]acetyl]-6H-pyrido[2,3-b][1,4]benzodiazepin-6-one]	4.5			
300	150	15	CCCC(C)(C)C(=O)N(CC)CCCC1CCN(CC(=O)N2c3ccccc3C(=O)Nc3cccnc32)CC1 [Substance B]	1.3			
875	500	38	CCCC(C)(C)C(=O)N(CC)CCCCC1CCN(CC(=O)N2c3ccccc3C(=O)Nc3cccnc32)CC1 [Substance C, 5,11-dihydro-11-[[4-[4-[(2,2-dimethyl-1-oxopentyl)-ethylamino]butyl]-1-piperidinyl]acetyl]-6H -pyrido [2,3-b][1,4]benzodiazepin-6-one]	2			
1500	1000	100	CCN(CCCC1CCN(CC(=O)N2c3ccc(C)cc3C(=O)Nc3cccnc32)CC1)C(=O)C(C)(C)C [Substance E, 5,11-dihydro-8-methyl-11-[[4-[3-[(2,2-dimethyl-1-oxopropyl)-ethylamino]propyl]-1-piperidinyl]acetyl]-6H-pyrido[2,3-b][1,4]benzodiazepin-6-one]	2.8			
1500	900	65	CCN(CCCC1CCN(CC(=O)N2c3ccccc3C(=O)Nc3cccnc32)CC1)C(=O)C(C)(C)C [Substance F, 5,11-Dihydro-11-[[4-[3-[(2,2-dimethyl-1-oxopropyl)ethylamino]propyl]-1-piperidinyl]acetyl]-6H-pyrido[2,3-b][1,4]benzodiazepin-6-one]	6.5			
40	10	5	O=C1Nc2cccnc2N(C(=O)CCCCCN2CCCCC2)c2ccccc21 [Substance O, 5,11-dihydro-11-[1-oxo-6-(1-piperidinyl)-1-hexyl]-6H-pyrido[2,3-b][1,4]benzodiazepin-10-one, reference compound]				
